Measured values reported in patent US20220211605A1, “AGENT FOR PROTECTION AGAINST ATMOSPHERIC POLLUTANTS AND COMPOSITION FOR PROTECTION AGAINST ATMOSPHERIC POLLUTANTS” (SHOWA DENKO K.K., priority 2019, published 2022).

What was measured:
[1] = test system: normal human epidermal keratinocytes (NHEK); assay: Effect of suppressing ROS production (dichlorofluorescein diacetate ROS assay kit) in NHEK exposed to atmospheric dust; type: cell-based; details: sample 10 μM for 24 hours, then atmospheric dust (NIST 1648a) added 500 μg/mL for 48 hours, fluorescence relative to control without atmospheric dust = 1
Method: The effect of Na tocopherol phosphate on suppressing ROS production in normal human epidermal keratinocytes (NHEK, manufactured by KURABO INDUSTRIES LTD.) was measured under the following conditions.
The NHEK cells were seeded in a HuMedia KG2 medium manufactured by KURABO INDUSTRIES LTD. at the seeding density of 10000 cells/cm^2, and cultured for 24 hours under the conditions of 37° C. and 5% CO2. Next, a sample, in which Na tocopherol phosphate or tocopherol acetate was dissolved in an aqueous solution of 0.05% (V/V) ethanol, was added to the culture medium so that the final concentration of Na tocopherol phosphate or tocopherol acetate was 10 μM, and culturing was performed for 24 hours under the conditions of 37° C. and 5% CO2. Furthermore, one obtained by adding 1 μL of the aqueous solution of 0.05% (V/V) ethanol to the culture medium and culturing for 24 hours was also prepared. […] Thereafter, the ROS production amount was measured using a ROS assay kit (manufactured by OZ BIOSCIENCES). […] After washing with PBS again, 100 μL of PBS was added, and the fluorescence intensity at an excitation wavelength of 485 nm/an absorption wavelength of 535 nm was measured with a microplate reader i-Control (manufactured by Tecan Group Ltd.). […]

[2] = test system: cell line derived from Lewis lung carcinoma (LLC); assay: Effect of suppressing invasion of cancer cells (CytoSelect invasion assay kit) exposed to atmospheric dust; type: cell-based; details: sample 10 μM for 24 hours, then atmospheric dust (NIST 1648a) added 500 μg/mL for 6 hours + 18 hours, fluorescence relative to control without atmospheric dust = 1
Method: The effect of Na tocopherol phosphate on suppressing the invasion of cells in a cell line derived from Lewis lung carcinoma (LLC, JCRB Cell Bank) was measured under the following conditions. A CytoSelect invasion assay kit manufactured by Cell Biolabs, Inc. was used for a test.
The LLC cells were seeded in a chamber plate for invasion tests attached to the above-mentioned invasion assay kit so that the concentration was 100000 cells/mL using a culture medium in which a Ham F10 medium and an L15 medium (both manufactured by Sigma-Aldrich) were mixed at the ratio of 3:7 (volume ratio), and cultured for 24 hours under the conditions of 37° C. and 5% CO2. Next, a sample, in which Na tocopherol phosphate or tocopherol acetate was dissolved in an aqueous solution of 0.05% (V/V) ethanol, was added to the culture medium so that the final concentration of Na tocopherol phosphate or tocopherol acetate was 10 μM, and culturing was further performed for 24 hours under the conditions of 37° C. and 5% CO2. […] Thereafter, the cells were stained using the above-mentioned invasion assay kit, and the fluorescence intensity at an excitation wavelength of 480 nm/an absorption wavelength of 570 nm was measured with a microplate reader i-Control (manufactured by Tecan Group Ltd.). […]

[3] = test system: cell line derived from Lewis lung carcinoma (LLC); assay: Effect of suppressing proliferation of cancer cells (WST-8) exposed to atmospheric dust; type: cell-based; details: sample 10 μM for 24 hours, then atmospheric dust (NIST 1648a) added 500 μg/mL for 48 hours, absorbance 450 nm relative to control without atmospheric dust = 1
Method: The effect of Na tocopherol phosphate on suppressing the proliferation of cancer cells in a cell line derived from Lewis lung carcinoma (LLC, JCRB Cell Bank) was measured under the following conditions.
The LLC cells were seeded at the seeding density of 50000 cells/cm^2 in a culture medium in which a Ham F10 medium and an L15 medium (both manufactured by Sigma-Aldrich) were mixed at the ratio of 3:7 (volume ratio), and cultured for 24 hours under the conditions of 37° C. and 5% CO2. Next, a sample, in which Na tocopherol phosphate or tocopherol acetate was dissolved in an aqueous solution of 0.05% (V/V) ethanol, was added to the culture medium so that the final concentration of Na tocopherol phosphate or tocopherol acetate was 10 μM, and culturing was performed for 24 hours. Furthermore, one obtained by adding 1 μL of the aqueous solution of 0.05% (VN) ethanol to the culture medium and culturing for 24 hours was also prepared. […] Thereafter, the culture medium was replaced with a medium containing 10% (VN) of WST-8 of Nacalai Tesque Inc., and after further culturing for 3 hours, the absorbance at the wavelength of 450 nm was measured with a microplate reader i-Control (manufactured by Tecan Group Ltd.). […]

[4] = test system: NRF2 gene; assay: Effect of promoting expression of NRF2 gene (quantitative real-time PCR, standardized to GAPDH) in NHEK exposed to atmospheric dust; type: cell-based, human; details: sample 10 μM for 24 hours, then atmospheric dust added 500 μg/mL for 48 hours, relative to control without atmospheric dust = 1
Method: The effect of Na tocopherol phosphate on promoting the expression of an NRF2 gene in normal human epidermal keratinocytes (NHEK, manufactured by KURABO INDUSTRIES LTD.) was measured under the following conditions.
The NHEK cells were seeded in a HuMedia KG2 medium manufactured by KURABO INDUSTRIES LTD. at the seeding density of 10000 cells/cm^2, and cultured for 24 hours under the conditions of 37° C. and 5% CO2. Next, a sample, in which Na tocopherol phosphate or tocopherol acetate was dissolved in an aqueous solution of 0.05% (V/V) ethanol, was added to the culture medium so that the final concentration of Na tocopherol phosphate or tocopherol acetate was 10 μM, and culturing was performed for 24 hours. Furthermore, one obtained by adding 5 μL of the aqueous solution of 0.05% (V/V) ethanol to the culture medium and culturing for 24 hours was also prepared. […] Using this cDNA as a template, the expression level of the NRF2 gene was quantitatively determined by quantitative real-time PCR using a primer specific to the NRF2 gene (Perfect Real Time Primer, manufactured by Takara Bio Inc.). As an internal standard gene, the expression level of GAPDH was quantitatively determined (primer used: Perfect Real Time Primer, manufactured by Takara Bio Inc.), and the expression level of the NRF2 gene was standardized based on the expression level of GAPDH. […]

## CC(=O)Oc1c(C)c(C)c2c(c1C)CCC(C)(CCC[C@H](C)CCC[C@H](C)CCCC(C)C)O2 (stereo partly shown) [Tocopherol acetate, tocopherol acetate]
[1]
  Relative ROS production amount: 1.67
[2]
  Relative cell invasion: 2.08
[3]
  Relative cell proliferation amount: 3.98
[4]
  Relative gene expression level NRF2: 0.71
